One may read the pEC50 as the EC50 on a negative log10 scale, so that one unit is a factor of ten. As a reminder, the inhibition is the share of the control response that was lost under treatment.

SMILES strings stand for the structures. pEC50: −log10 of the molar value.

10 molecules from patent US20100152240A1, “PYRROLINE-2-ONE DERIVATIVES AGAINST CELL RELEASING TUMOR NECROSIS FACTOR, PREPARATION METHODS AND USES THEREOF” (priority 2006, published 2010) can be followed below.

In the assay the test system is TNFα released by PBMCs stimulated by LPS. The assay can be described thus: Inhibition of the release of TNFα in peripheral blood mononuclear cells (PBMCs) stimulated by lipopolysaccharide (LPS), ELISA. It counts as cell-based, human. To be noted: LPS 0.1 μg/mL, 20 hours incubation; for Inhibition Degree: compound concentration 3.0 μM; for pEC50: concentration giving 50% TNFα inhibition. On the procedure:
Pharmacological Research: Effects on the releasing of TNFα in peripheral blood mononuclear cells (PBMCs) stimulated by lipopolysaccharide (LPS).
Cytokine TNFα released by PBMCs in the peripheral blood stimulated by lipid polysaccharide (LPS) in vitro was studied.
PBMCs were collected from blood of at least three volunteers pretreated with heparin by a gradient separation method, and washed three times with a 1640 culture medium (10% calf serum, 2 mM L-glutamine, […] mercaptoethanol, 50 μg/mL streptomycin, and 50 U/mL penicillin). The obtained PBMCs were then placed into a 24-well cell culture plate and the concentration was adjusted to 1×10^6 cells/mL with 1640 culture medium. The compounds to be tested were dissolved in dimethylsulfoxide to obtain a solution having a required concentration. The solution was added to the above-mentioned cell culture medium and cultured in an incubator (5% CO2, 90% humidity) for 1 hour. Then, LPS (Sigma) was added until the concentration reached 0.1 μg/mL (except for the control).
After 20 hours incubation, the content of TNFα in the supernatant of the PBMC culture medium was assayed by ELISA kit (America Genzyme Co) using standard method. The TNFα inhibition rate was calculated by measured value of the control well (not treated) and the measured value of the test wells (treated with the test compound). The concentration of compounds giving a 50% TNFα inhibition (IC50 value) was calculated using nonlinear regression analysis. Each concentration was determined twice and an average value was practicable.
(In general: In an ELISA, binding on a coated surface is turned into a signal by an enzyme label.)

Regarding `O=C1CCC(N2Cc3cscc3C2=O)C(=O)N1` (stereo not shown) [Example 9, 3-(4-oxo-4H-thiophene[3,4-c]pyrrol-5(6H)-yl)piperidine-2,6-dione], the “Inhibition Degree” value is listed as 32%.

For `CN1C(=O)CCC(N2Cc3cscc3C2=O)C1=O` (stereo not shown) [Example 10, 1-methyl-3-(4-oxo-4H-thiophene[3,4-c]pyrrol-5(6H)-yl)piperidine-2,6-dione], the “Inhibition Degree” value is 28%. Still for that read-out and setting: then `CCCN1C(=O)CCC(N2Cc3cscc3C2=O)C1=O` (stereo not shown) [Example 11, 3-(4-oxo-4H-thiophene[3,4-c]pyrrol-5(6H)-yl)-1-propylpiperidine-2,6-dione], with 22%.

For the molecule `CC1(N2Cc3cscc3C2=O)CCC(=O)NC1=O` (stereo not shown) [Example 16, 3-methyl-3-(4-oxo-4H-thiophene[3,4-c]pyrrole-5(6H)-yl)piperidine-2,6-dione], the “Inhibition Degree” value is listed as 38%. Turning to `O=C1CCC(N2Cc3c(csc3[N+](=O)[O-])C2=O)C(=O)N1` (stereo not shown) [Example 17, 3-(1-nitro-4-oxo-4H-thiophene[3,4-c]pyrrole-5(6H)-yl)piperidine-2,6-dione], the “Inhibition Degree” value is 19%. As for `Nc1scc2c1CN(C1CCC(=O)NC1=O)C2=O` (stereo not shown) [Example 18, 3-(1-amino-4-oxo-4H-thiophene[3,4-c]pyrrole-5(6H)-yl)piperidine-2,6-dione], the “Inhibition Degree” value is given as 94% and the pEC50 was 7.22.

As for `CC1(N2Cc3c(csc3N)C2=O)CCC(=O)NC1=O` (stereo not shown) [Example 20, 3-methyl-3-(1-amino-4-oxo-4H-thiophene[3,4-c]pyrrole-5(6H)-yl)piperidine-2,6-dione], the “Inhibition Degree” value is 76% and the negative logarithm of the EC50 (pEC50) is 6.74. For `O=C1CCC(N2Cc3ccsc3C2=O)C(=O)N1` (stereo not shown) [Example 33, 3-(6-oxo-4H-thiophene[3,2-c]pyrrole-5(6H)-yl)piperidine-2,6-dione], the “Inhibition Degree” value is recorded as 47%. Same read-out and setting: then `O=C1CCC(N2C(=O)c3cscc3C2=O)CN1` (stereo not shown) [Example 34, 5-(6-oxo-piperidine-3-yl)-5H-thiophene[3,4-c]pyrrole-4,6-dione], with 18%. In the case of `O=C1CCC(N2C(=O)c3ccccc3C2=O)C(=O)N1` (stereo not shown) [Thalidomide, reference compound], the inhibition at 100 µM (Homo sapiens, PBMC, compound concentration 100 μM, read-out: Inhibition Degree) turned out to be 22%. The pEC50 (Homo sapiens, PBMC) is 3.74.
